Literature values, collected in patent US20060069238A1, “Synthetic glyco-lipo-peptides as vaccines” (Biomira, Inc., priority 2002, published 2006).

Conditions: n-octanol:water, experimental database of LogKow; cited from earlier work

Structure (SMILES): Cc1c[nH]c2ccccc12 [3-methyl indole]
- LogP Exp: 2.60
